Legend:
[1] = test system: PHA activated healthy human T cells; experiment: PHA induced proliferation of healthy human lymphocytes, alamar blue; assay type: cell-based
[2] = test system: resistant colon carcinoma LS1034 cell-line; experiment: Viability of resistant colon carcinoma LS1034 cell-line (FIG. 7A); assay type: cell-based; conditions: LS-1034, read-out: IC50, inhibition of cell viability
Excerpt: This example illustrates cell viability data obtained by separately administering different concentrations of compound (Ia), sertraline, paroxetine, and doxorubicin to a […] resistant colon carcinoma LS1034 cell-line. The results are depicted in FIG. 7A.

human glioma U87 cells = experiment: Viability of human glioma U87 cell-line; assay type: cell-based; conditions: FIG. 9
male Balb/C mice = experiment: Acute toxicity in male Balb/C mice, ip; assay type: in vivo
Description: This example illustrates acute toxicity data derived from the treatment of male Balb/C mice with different concentrations of compound (Ia). The results are depicted in FIG. 11. Compound (Ia) was administered ip to groups of mice at doses of 10, 20 and 30 mg/kg. Sertraline was also administered to one group at 30 mg/kg. Each group of mice included five animals.
Body weight was determined up to 12 days after drug administration.

[3] = test system: human Jurkat lymphoma cells; experiment: Viability of human Jurkat lymphoma cells, dexamethasone alone and in combination; assay type: cell-based
BXF T24 = experiment: Monolayer Assay, PI: BXF T24 (Bladder); assay type: cell-based, human
Excerpt: (§1) This example illustrates cell proliferation data in the form of IC50, IC70 and IC90 values obtained by exposure of human cancer cell-lines to compound (Ia). […].

CXF HCT116 = experiment: Monolayer Assay, PI: CXF HCT116 (Colorectal); assay type: cell-based, human
Excerpt: as §1

MEXF 520L = experiment: Monolayer Assay, PI: MEXF 520L (Melanoma); assay type: cell-based, human
Excerpt: as §1

OVXF 1619L = experiment: Monolayer Assay, PI: OVXF 1619L (Ovarian Cancer); assay type: cell-based, human
Excerpt: as §1

PRXF 22RV1 = experiment: Monolayer Assay, PI: PRXF 22RV1 (Prostate); assay type: cell-based, human
Excerpt: as §1

PRXF LNCAP = experiment: Monolayer Assay, PI: PRXF LNCAP (Prostate); assay type: cell-based, human
Excerpt: as §1

RXF 1781L = experiment: Monolayer Assay, PI: RXF 1781L (Renal); assay type: cell-based, human
Excerpt: as §1

RXF 393NL = experiment: Monolayer Assay, PI: RXF 393NL (Renal); assay type: cell-based, human
Excerpt: as §1

RXF 944L = experiment: Monolayer Assay, PI: RXF 944L (Renal); assay type: cell-based, human
Excerpt: as §1

UXF 1138L = experiment: Monolayer Assay, PI: UXF 1138L (Uterus Body); assay type: cell-based, human
Excerpt: as §1

XCL A431 = experiment: Monolayer Assay, PI: XCL A431; assay type: cell-based, human
Excerpt: as §1

CN[C@H]1CC[C@@H](c2ccc(Cl)c(Cl)c2)c2ccc(C#CCCCO)cc21 [compound (Ia), (1S-cis)-4-(3,4-dichlorophenyl)-7-(5-hydroxy-1-pentyn-1-yl)-1,2,3,4-tetrahydro-N-methyl-1-naphthalenamine hydroiodide]
potency relative to sertraline [1]: about 3 times
IC50 ([1]; T-cell, 48 hr, alamar blue): 9.8 µM
IC50 [2]: 11.3 µM
effect on cell viability (human glioma U87 cells): inhibit this glioma cell-line in a dose dependant fashion
efficacy compared with paroxetine (human glioma U87 cells): higher efficacy than paroxetine
behavioral changes (male Balb/C mice; ip 10, 20 and 30 mg/kg, observed 4 h and after 24 h): none of the animals showed any observed change in behavior
changes in food intake or body weight (male Balb/C mice; ip 10, 20 and 30 mg/kg, over 12 days): none of the animals exhibited changes in food intake or body weight
tolerability of acute ip administration (male Balb/C mice; ip, up to 30 mg/kg): well tolerated
inhibition of cell viability compared with sertraline and paroxetine ([3]; FIG. 13A): higher than that produced by either sertraline or paroxetine
cytotoxicity at 20 µM ([3]; Homo sapiens, 20 μM alone, FIG. 13B, read-out: inhibition of cell viability): 69%
Test/Control (%) (BXF T24; 2.3 μg/ml): 93%
Test/Control activity class (BXF T24; 2.3 μg/ml): − (− (T/C = 50))
Test/Control (%) (BXF T24; 7.5 μg/ml): 53%
Test/Control activity class (BXF T24; 7.5 μg/ml): − (− (T/C = 50))
Test/Control (%) (BXF T24; 23. μg/ml): 2%
Test/Control activity class (BXF T24; 23. μg/ml): +++ (+++ (T/C < 10))
Test/Control (%) (BXF T24; 75. μg/ml): 2%
Test/Control activity class (BXF T24; 75. μg/ml): +++ (+++ (T/C < 10))
Test/Control (%) (BXF T24; .75 μg/ml): 88%
Test/Control activity class (BXF T24; .75 μg/ml): − (− (T/C = 50))
Test/Control (%) (CXF HCT116; 2.3 μg/ml): 93%
Test/Control activity class (CXF HCT116; 2.3 μg/ml): − (− (T/C = 50))
Test/Control (%) (CXF HCT116; 7.5 μg/ml): 4%
Test/Control activity class (CXF HCT116; 7.5 μg/ml): +++ (+++ (T/C < 10))
Test/Control (%) (CXF HCT116; 23. μg/ml): 2%
Test/Control activity class (CXF HCT116; 23. μg/ml): +++ (+++ (T/C < 10))
Test/Control (%) (CXF HCT116; 75. μg/ml): 1%
Test/Control activity class (CXF HCT116; 75. μg/ml): +++ (+++ (T/C < 10))
Test/Control (%) (CXF HCT116; .75 μg/ml): 99%
Test/Control activity class (CXF HCT116; .75 μg/ml): − (− (T/C = 50))
Test/Control (%) (MEXF 520L; 2.3 μg/ml): 83%
Test/Control activity class (MEXF 520L; 2.3 μg/ml): − (− (T/C = 50))
Test/Control (%) (MEXF 520L; 7.5 μg/ml): 8%
Test/Control activity class (MEXF 520L; 7.5 μg/ml): ++ (++ (10 <= T/C < 30))
Test/Control (%) (MEXF 520L; 23. μg/ml): 2%
Test/Control activity class (MEXF 520L; 23. μg/ml): +++ (+++ (T/C < 10))
Test/Control (%) (MEXF 520L; 75. μg/ml): 4%
Test/Control activity class (MEXF 520L; 75. μg/ml): +++ (+++ (T/C < 10))
Test/Control (%) (MEXF 520L; .75 μg/ml): 102%
Test/Control activity class (MEXF 520L; .75 μg/ml): − (− (T/C = 50))
Test/Control (%) (OVXF 1619L; 2.3 μg/ml): 88%
Test/Control activity class (OVXF 1619L; 2.3 μg/ml): − (− (T/C = 50))
Test/Control (%) (OVXF 1619L; 7.5 μg/ml): 2%
Test/Control activity class (OVXF 1619L; 7.5 μg/ml): +++ (+++ (T/C < 10))
Test/Control (%) (OVXF 1619L; 23. μg/ml): 1%
Test/Control activity class (OVXF 1619L; 23. μg/ml): +++ (+++ (T/C < 10))
Test/Control (%) (OVXF 1619L; 75. μg/ml): 1%
Test/Control activity class (OVXF 1619L; 75. μg/ml): +++ (+++ (T/C < 10))
Test/Control (%) (OVXF 1619L; .75 μg/ml): 98%
Test/Control activity class (OVXF 1619L; .75 μg/ml): − (− (T/C = 50))
Test/Control (%) (PRXF 22RV1; 2.3 μg/ml): 80%
Test/Control activity class (PRXF 22RV1; 2.3 μg/ml): − (− (T/C = 50))
Test/Control (%) (PRXF 22RV1; 7.5 μg/ml): 24%
Test/Control activity class (PRXF 22RV1; 7.5 μg/ml): ++ (++ (10 <= T/C < 30))
Test/Control (%) (PRXF 22RV1; 23. μg/ml): 2%
Test/Control activity class (PRXF 22RV1; 23. μg/ml): +++ (+++ (T/C < 10))
Test/Control (%) (PRXF 22RV1; 75. μg/ml): 2%
Test/Control activity class (PRXF 22RV1; 75. μg/ml): +++ (+++ (T/C < 10))
Test/Control (%) (PRXF 22RV1; .75 μg/ml): 85%
Test/Control activity class (PRXF 22RV1; .75 μg/ml): − (− (T/C = 50))
Test/Control (%) (PRXF LNCAP; 2.3 μg/ml): 56%
Test/Control activity class (PRXF LNCAP; 2.3 μg/ml): − (− (T/C = 50))
Test/Control (%) (PRXF LNCAP; 7.5 μg/ml): 4%
Test/Control activity class (PRXF LNCAP; 7.5 μg/ml): +++ (+++ (T/C < 10))
Test/Control (%) (PRXF LNCAP; 23. μg/ml): 3%
Test/Control activity class (PRXF LNCAP; 23. μg/ml): +++ (+++ (T/C < 10))
Test/Control (%) (PRXF LNCAP; 75. μg/ml): 3%
Test/Control activity class (PRXF LNCAP; 75. μg/ml): +++ (+++ (T/C < 10))
Test/Control (%) (PRXF LNCAP; .75 μg/ml): 78%
Test/Control activity class (PRXF LNCAP; .75 μg/ml): − (− (T/C = 50))
Test/Control (%) (RXF 1781L; 2.3 μg/ml): 76%
Test/Control activity class (RXF 1781L; 2.3 μg/ml): − (− (T/C = 50))
Test/Control (%) (RXF 1781L; 7.5 μg/ml): 4%
Test/Control activity class (RXF 1781L; 7.5 μg/ml): +++ (+++ (T/C < 10))
Test/Control (%) (RXF 1781L; 23. μg/ml): 3%
Test/Control activity class (RXF 1781L; 23. μg/ml): +++ (+++ (T/C < 10))
Test/Control (%) (RXF 1781L; 75. μg/ml): 3%
Test/Control activity class (RXF 1781L; 75. μg/ml): +++ (+++ (T/C < 10))
Test/Control (%) (RXF 1781L; .75 μg/ml): 96%
Test/Control activity class (RXF 1781L; .75 μg/ml): − (− (T/C = 50))
Test/Control (%) (RXF 393NL; 2.3 μg/ml): 91%
Test/Control activity class (RXF 393NL; 2.3 μg/ml): − (− (T/C = 50))
Test/Control (%) (RXF 393NL; 7.5 μg/ml): 5%
Test/Control activity class (RXF 393NL; 7.5 μg/ml): +++ (+++ (T/C < 10))
Test/Control (%) (RXF 393NL; 23. μg/ml): 1%
Test/Control activity class (RXF 393NL; 23. μg/ml): +++ (+++ (T/C < 10))
Test/Control (%) (RXF 393NL; 75. μg/ml): 1%
Test/Control activity class (RXF 393NL; 75. μg/ml): +++ (+++ (T/C < 10))
Test/Control (%) (RXF 393NL; .75 μg/ml): 96%
Test/Control activity class (RXF 393NL; .75 μg/ml): − (− (T/C = 50))
Test/Control (%) (RXF 944L; 2.3 μg/ml): 103%
Test/Control activity class (RXF 944L; 2.3 μg/ml): − (− (T/C = 50))
Test/Control (%) (RXF 944L; 7.5 μg/ml): 9%
Test/Control activity class (RXF 944L; 7.5 μg/ml): +++ (+++ (T/C < 10))
Test/Control (%) (RXF 944L; 23. μg/ml): 3%
Test/Control activity class (RXF 944L; 23. μg/ml): +++ (+++ (T/C < 10))
Test/Control (%) (RXF 944L; 75. μg/ml): 3%
Test/Control activity class (RXF 944L; 75. μg/ml): +++ (+++ (T/C < 10))
Test/Control (%) (RXF 944L; .75 μg/ml): 94%
Test/Control activity class (RXF 944L; .75 μg/ml): − (− (T/C = 50))
Test/Control (%) (UXF 1138L; 2.3 μg/ml): 103%
Test/Control activity class (UXF 1138L; 2.3 μg/ml): − (− (T/C = 50))
Test/Control (%) (UXF 1138L; 7.5 μg/ml): 3%
Test/Control activity class (UXF 1138L; 7.5 μg/ml): +++ (+++ (T/C < 10))
Test/Control (%) (UXF 1138L; 23. μg/ml): 2%
Test/Control activity class (UXF 1138L; 23. μg/ml): +++ (+++ (T/C < 10))
Test/Control (%) (UXF 1138L; 75. μg/ml): 3%
Test/Control activity class (UXF 1138L; 75. μg/ml): +++ (+++ (T/C < 10))
Test/Control (%) (UXF 1138L; .75 μg/ml): 102%
Test/Control activity class (UXF 1138L; .75 μg/ml): − (− (T/C = 50))
Test/Control (%) (XCL A431; 2.3 μg/ml): 94%
Test/Control activity class (XCL A431; 2.3 μg/ml): − (− (T/C = 50))
Test/Control (%) (XCL A431; 7.5 μg/ml): 6%
Test/Control activity class (XCL A431; 7.5 μg/ml): +++ (+++ (T/C < 10))
Test/Control (%) (XCL A431; 23. μg/ml): 3%
Test/Control activity class (XCL A431; 23. μg/ml): +++ (+++ (T/C < 10))
Test/Control (%) (XCL A431; 75. μg/ml): 2%
Test/Control activity class (XCL A431; 75. μg/ml): +++ (+++ (T/C < 10))
Test/Control (%) (XCL A431; .75 μg/ml): 100%
Test/Control activity class (XCL A431; .75 μg/ml): − (− (T/C = 50))
